Literature values in US20170326154A1, “Pre-Operative Composition for Sedation or Analgesia” (priority 2016, published 2017).
Read-outs that look alike come from different tables or passages of the source.

Tests used:
[1] = basic drug, nitrogen atom in the imidazole ring

Cc1ncc2n1-c1ccc(Cl)cc1C(c1ccccc1F)=NC2 [Midazolam, 8-chloro-6-(2′-fluorophenyl)-1-methyl-4H-imidazo[1,5-a][1,4]-benzodiazepine]
adequate sedation within (time) (intranasal administration): 10 to 15 min | adequate sedation within (time) (oral administration): 10 to 20 min | pKa value [1]: 5.5 and 6.2
